Entries after “also recorded” stand apart in the source; their conditions may differ. Like-named read-outs stand apart in the source and are kept apart here. Blank lines part the entries; values can stand above or below the compound they belong to.
Tests used:
[1] = target: T1, LRRK2 G2019S (Homo sapiens, UniProt Q5S007, G2019S); experiment: LRRK2 G2019S kinase activity assay (LanthaScreen TR-FRET); type: biochemical; details: 250 pM LRRK2 G2019S, 1.3 mM ATP, 3 h at 30° C.; n≥2 tests
T1 construct: purchased Invitrogen (Life Technologies Corporation)
Summary of the method: (§1)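 TR-FRET measured phosphorylation of fluorescein-ERM LRRKtide by human LRRK2 residues 970–2527, wild-type or G2019S, detected with a terbium anti-phospho-LRRKtide antibody. The 520/495 nm ratio was normalized to uninhibited and inhibitor controls. IC50 came from a Hill fit, log-averaged over independent experiments.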

[2] = target: T2, LRRK2 WT (Homo sapiens, UniProt Q5S007); experiment: LRRK2 wild-type kinase activity assay (LanthaScreen TR-FRET); type: biochemical; details: 1 nM LRRK2 WT, 1.3 mM ATP, 3.5 h at 30° C.; n≥2 tests
T2 construct: comprises residue 970 to 2527 of the full length human wild-type LRRK2 kinase; purchased Invitrogen (Life Technologies Corporation)
Summary of the method: as §1

[3] = Hepatocyte intrinsic clearance assay; type: in vitro ADME, human; details: human, pooled donor, cryopreserved hepatocytes, pH 7.4, 0.1 μM, 2 h at 37° C., 1×10^6 hepatocytes/mL; * measured on 3 separate occasions, ** on a single occasion
Experimental: Test compounds (final concentration 0.1 μM, 0.05% organic) were incubated for 2 h at 37° C., with shaking, in supplemented Leibovitz L-15 media (pH7.4) containing commercially sourced, pooled donor, cryopreserved hepatocytes (final concentration 1×10^6 hepatocytes/m L). The CLint reactions (350 μL) were initiated by addition of test compound. Aliquots (25 μL) were taken at 1, 5, 10, 15, 30, 60, 90 and 120 minutes and then protein crashed with ice-cold acetonitrile containing internal standard (150 μL) then centrifuged (1960 g for 20 minutes at 4° C.). Supernatant was diluted (1:4) with deionized water then analyzed by liquid chromatography (LC)-tandem mass spectrometry (MS/MS). The intrinsic clearances (CLint) were calculated from the slope (k) of the linear regressions of percentages of compound remaining in incubation against incubation time, according to equations 2 and 3.

[4] = Rat B/P (brain disposition); type: in vivo, male Sprague-Dawley rats; details: male, Sprague-Dawley; for concentration at 1 h / Kp uu at 1 h / Kp at 1 h: time point 1.0 h; for concentration at 1 h / Kp at 1 h / concentration at 0.5 h / Kp at 0.5 h: mean ± stdev; for Kp uu at 1 h / Kp at 1 h / Kp at 0.5 h / Kp uu at 0.5 h: brain/plasma; for Kp uu at 1 h / Kp uu at 0.5 h: fubrain from brain homogenate; for Kp at 1 h / Kp at 0.5 h: n = 3; for concentration at 0.5 h / Kp at 0.5 h / Kp uu at 0.5 h: time point 0.5 h
Experimental: Brain disposition was evaluated for each compound in male Sprague-Dawley rats (n=3, standard body weight). […] Isolated plasma and brain homogenates were extracted by standard protein precipitation in acetonitrile, containing internal standard, followed by LC-MS/MS analysis using an optimized analytical method. Concentrations of test compound in plasma and brain were quantified against matrix matched calibration standards. The total plasma and brain concentration data are presented in Table 7 alongside the calculated brain Kp (total brain concentration:total plasma concentration ratio).

[5] = Free fraction in plasma (equilibrium dialysis); type: in vitro ADME, male Sprague-Dawley rat; details: rat plasma, 1 μM, 5 h at 37° C.
Experimental: The free fractions in male Sprague-Dawley rat or female Gottingen minipig plasma (fuplasma) and rat brain homogenate (fubrain) were determined by equilibrium dialysis using 96-well HTD-dialysis plates with dialysis membranes (molecular weight cut off 12-14 KDa). One side of the HTD-dialysis plate was loaded with matrix (plasma or brain homogenate) and the other side with buffer (100 mM sodium phosphate buffer, pH 7.4). Test compounds were dissolved in DMSO then spiked (5 μL of 0.2 mM) into blank (995 μL) plasma or diluted brain homogenate (1:4 ratio in phosphate buffer) giving a final nominal concentration 1 μM (≤0.5% DMSO). The matrices were loaded into respective chambers and equilibrated against phosphate buffer for 5 h at 37° C. (in a humidified air incubator with 5% CO2 with shaking). Samples from both chambers (buffer and plasma or brain homogenate) were aliquoted to fresh 96-well polypropylene plates then matrix matched using an equal volume of opposite blank matrix before extraction with cold solvent (3 volumes acetonitrile) containing an appropriate bioanalytical internal standard. After centrifugation (20 min, 3200 g, 4° C.) the supernatants were diluted with appropriate volumes of water and compound concentrations were quantified by LC/MS-MS against matrix matched calibration standards. The fuplasma and fubrain were calculated as a percent free according to equation 4 below.
Where [F] is the analyte concentration on the buffer (receiver) side of the membrane; [T] is the analyte concentration on the plasma or brain (donor) side of the membrane; [TO] is the analyte concentration in the plasma or brain sample at time zero; D is matrix dilution factor which is determined as 4 for brain matrix and 1 for plasma matrix in these assays.

[6] = GSH adduct screening; type: in vitro ADME, human; details: 1 μM, 3 h at 37° C., HLM 0.5 mg/mL, NADPH, with and without GSH
Experimental: Test compounds (final concentration 1 μM, 0.25% organic) were incubated for 3 h at 37° C. in commercially sourced, pooled donor, human liver microsomes (HLM, final concentration 0.5 mg/mL) with and without addition of glutathione (GSH; final concentration […]). The metabolic reaction was initiated by addition of microsomal solution to the mixture of cofactor NADPH (final concentration 1 mM), test compound and GSH. After 3 h of incubation in a water bath at 37° C., the reaction was stopped by addition of 0.2% formic acid in acetonitrile, followed by mixing and centrifugation (16000 g for 5 minutes). Supernatant was diluted (1:1) with HPLC water then analyzed by liquid chromatography (LC)-quadrupole time-of-flight mass spectrometry (QTOF-MS). Accurate mass MS and MS/MS spectra from samples with GSH and without GSH, respectively, were compared to identify detectable GSH and/or cysteine related adducts.

[7] = brain, oral gavage 10 mg/kg, n = 3, read-out: Total brain concentration
[8] = plasma, oral gavage 10 mg/kg, n = 3, read-out: Total plasma concentration

T1 sequence (Q5S007 970-2527 G2019S): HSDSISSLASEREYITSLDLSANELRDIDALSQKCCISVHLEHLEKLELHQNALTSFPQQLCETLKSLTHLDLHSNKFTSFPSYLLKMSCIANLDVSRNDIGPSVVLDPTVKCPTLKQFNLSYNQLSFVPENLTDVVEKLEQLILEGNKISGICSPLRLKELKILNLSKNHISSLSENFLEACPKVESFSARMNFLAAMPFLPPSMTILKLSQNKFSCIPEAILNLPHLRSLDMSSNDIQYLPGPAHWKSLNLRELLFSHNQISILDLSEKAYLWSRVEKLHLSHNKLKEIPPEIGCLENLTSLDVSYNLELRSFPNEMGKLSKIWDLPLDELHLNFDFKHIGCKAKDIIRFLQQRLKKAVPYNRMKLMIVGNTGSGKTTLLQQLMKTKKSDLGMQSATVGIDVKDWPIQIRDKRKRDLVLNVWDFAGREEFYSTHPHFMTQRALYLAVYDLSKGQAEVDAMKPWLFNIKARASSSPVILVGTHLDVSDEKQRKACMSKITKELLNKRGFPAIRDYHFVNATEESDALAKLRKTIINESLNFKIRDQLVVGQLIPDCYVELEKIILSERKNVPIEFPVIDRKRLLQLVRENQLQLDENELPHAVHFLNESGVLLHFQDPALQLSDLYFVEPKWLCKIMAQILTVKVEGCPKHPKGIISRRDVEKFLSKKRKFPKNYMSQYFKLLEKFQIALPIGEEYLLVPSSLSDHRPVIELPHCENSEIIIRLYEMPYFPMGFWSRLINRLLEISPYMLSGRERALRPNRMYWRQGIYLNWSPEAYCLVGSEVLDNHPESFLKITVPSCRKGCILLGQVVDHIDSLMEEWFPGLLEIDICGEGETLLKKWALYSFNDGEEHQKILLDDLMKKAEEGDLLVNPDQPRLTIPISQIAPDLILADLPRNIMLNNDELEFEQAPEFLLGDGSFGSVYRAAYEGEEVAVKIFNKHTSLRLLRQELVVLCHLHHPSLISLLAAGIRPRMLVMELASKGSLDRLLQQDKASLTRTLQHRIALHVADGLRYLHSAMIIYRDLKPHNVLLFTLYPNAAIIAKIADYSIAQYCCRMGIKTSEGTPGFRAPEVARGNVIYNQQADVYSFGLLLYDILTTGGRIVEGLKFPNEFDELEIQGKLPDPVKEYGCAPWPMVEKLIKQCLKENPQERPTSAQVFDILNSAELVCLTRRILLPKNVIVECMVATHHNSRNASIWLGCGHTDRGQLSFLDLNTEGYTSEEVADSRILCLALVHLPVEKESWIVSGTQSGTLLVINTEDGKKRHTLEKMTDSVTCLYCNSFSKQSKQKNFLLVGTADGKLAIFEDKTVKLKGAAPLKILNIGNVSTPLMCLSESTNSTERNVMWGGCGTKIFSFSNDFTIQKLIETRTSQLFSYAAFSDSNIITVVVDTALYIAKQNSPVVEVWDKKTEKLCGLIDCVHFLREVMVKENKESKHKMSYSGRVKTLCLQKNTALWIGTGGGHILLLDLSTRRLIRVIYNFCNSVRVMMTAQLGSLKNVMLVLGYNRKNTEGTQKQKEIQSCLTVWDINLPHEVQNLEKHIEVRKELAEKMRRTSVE
T2 sequence (Q5S007 970-2527): as the sequence (Q5S007 970-2527 G2019S) above, with S1050G counted along it

SMILES: Cc1c2c(nn1[C@H]1CCCCOC1)OCCCn1nc(Cl)c3cnc(nc31)N2 (single isomer, unassigned) [Example 27, (−)-(R) or (S)-8-Chloro-3-methyl-2-(oxepan-3-yl)-2,4,12,13-tetrahydro-11H-5,7-(azenometheno)dipyrazolo[3,4-b:5′,1′-g][1]oxa[4,6,8]triazacycloundecine]
- IC50 [1]: 7.3 nM
- IC50 [2]: 25 nM
- CLint scaled at 0.1 μM [3]: 9.5 mL/min/kg
- concentration at 1 h ([4]; brain, oral gavage 5 mg/kg, n = 3, read-out: Total brain concentration): 443 ± 50 ng/g
- Kp uu at 1 h ([4]; oral gavage 5 mg/kg): 0.52 ± 0.01
- Kp at 1 h ([4]; oral gavage 5 mg/kg): 1.63 ± 0.03
- concentration at 1 h ([4]; plasma, oral gavage 5 mg/kg, n = 3, read-out: Total plasma concentration): 273 ± 36 ng/mL
- fuplasma (% free) [5]: 19.9 % free

SMILES: Cc1c2c(nn1[C@H]1C[C@@H](C)O[C@@H](C)C1)OCCCn1nc(Cl)c3cnc(nc31)N2 [Example 41, 8-chloro-2-((2R,4r,6S)-2,6-dimethyltetrahydro-2H-pyran-4-yl)-3-methyl-2,4,12,13-tetrahydro-11H-5,7-(azenometheno)dipyrazolo[3,4-b:5′,1′-g][1]oxa[4,6,8]triazacycloundecine]
- IC50 [1]: 6.4 nM
- IC50 [2]: 17 nM
- CLint scaled at 0.1 μM [3]: 5.67 mL/min/kg
- concentration at 0.5 h [4, 7]: 620 ± 30 ng/g
- Kp at 0.5 h ([4]; oral gavage 10 mg/kg): 2.5 ± 0.31
- concentration at 0.5 h [4, 8]: 250 ± 24 ng/mL
- fuplasma (% free) [5]: 25.2 % free

SMILES: [2H]C([2H])([2H])c1c2c(nn1[C@H]1CC[C@H](OC)CC1)OCCCn1nc(Cl)c3cnc(nc31)N2 [Example 50]
- IC50 [1]: 5.3 nM
- IC50 [2]: 10 nM
- CLint scaled at 0.1 μM [3]: < 4 mL/min/kg
- Adduct detected in GSH supplemented HLMs [6]: did not form GSH adduct; also recorded: None detected

SMILES: [2H]C([2H])([2H])c1c2c(nn1[C@H]1CCO[C@@H](C)C1)OCCCn1nc(Cl)c3cnc(nc31)N2 (single isomer, unassigned) [Example 51, (+)-8-Chloro-3-(methyl-d3)-2-((2R,4R) or (2S,4S)-2-methyltetrahydro-2H-pyran-4-yl)-2,4,12,13-tetrahydro-11H-5,7-(azenometheno)dipyrazolo[3,4-b:5′,1′-g][1]oxa[4,6,8]triazacycloundecine]
- IC50 [1]: 5.3 nM
- IC50 [2]: 9 nM
- CLint scaled at 0.1 μM [3]: < 4 mL/min/kg
- Adduct detected in GSH supplemented HLMs [6]: +GSH

SMILES: Cc1c2c(nn1C1CCOCC1)OCCCn1nc(Cl)c3cnc(nc31)N2 [Example 2, 8-Chloro-3-methyl-2-(tetrahydro-2H-pyran-4-yl)-2,4,12,13-tetrahydro-11H-5,7-(azenometheno)dipyrazolo[3,4-b:5′,1′-g][1]oxa[4,6,8]triazacycloundecine]
- CLint scaled at 0.1 μM [3]: 14.2 mL/min/kg
- Adduct detected in GSH supplemented HLMs [6]: +GSH

The remaining compounds from weak to strong by IC50 [1], led by results:

- IC50 [1]: 4.3 nM
- IC50 [2]: 13 nM
- CLint scaled at 0.1 μM [3]: < 4 mL/min/kg
- concentration at 0.5 h [4, 7]: 731 ± 223 ng/g
- Kp uu at 0.5 h ([4]; oral gavage 10 mg/kg): 0.3 ± 0.04
- Kp at 0.5 h ([4]; oral gavage 10 mg/kg): 1.56 ± 0.23
- concentration at 0.5 h [4, 8]: 468 ± 117 ng/mL
- fuplasma (% free) [5]: 25.5 % free
SMILES: Cc1c2c(nn1[C@@H]1C[C@H]3CC[C@@H](C1)O3)OCCCn1nc(Cl)c3cnc(nc31)N2 [Example 44, 2-((1R,3s,5S)-8-Oxabicyclo[3.2.1]octan-3-yl)-8-chloro-3-methyl-2,4,12,13-tetrahydro-11H-5,7-(azenometheno)dipyrazolo[3,4-b:5′,1′-g][1]oxa[4,6,8]triazacycloundecine]

- IC50 [1]: 3.7 nM
- IC50 [2]: 8.5 nM
- CLint scaled at 0.1 μM [3]: < 4 mL/min/kg
- Adduct detected in GSH supplemented HLMs [6]: +GSH
- concentration at 0.5 h [4, 7]: 683 ± 139 ng/g
- Kp at 0.5 h ([4]; oral gavage 10 mg/kg): 1.87 ± 0.76
- Kp uu at 0.5 h ([4]; po, 10 mg/kg, oral gavage 10 mg/kg): 0.47 ± 0.19
- concentration at 0.5 h [4, 8]: 391 ± 96 ng/mL
- fuplasma (% free) [5]: 18.2 % free
SMILES: CO[C@H]1CC[C@H](n2nc3c(c2C)Nc2ncc4c(Cl)nn(c4n2)CCCO3)CC1 [Example 37, 8-Chloro-2-((1r,4r)-4-methoxycyclohexyl)-3-methyl-2,4,12,13-tetrahydro-11H-5,7-(azenometheno)dipyrazolo[3,4-b:5′,1′-g][1]oxa[4,6,8]triazacycloundecine]

- IC50 [1]: 3.6 nM
- IC50 [2]: 11 nM
- CLint scaled at 0.1 μM [3]: < 4 mL/min/kg
- Adduct detected in GSH supplemented HLMs [6]: +GSH
- concentration at 1 h [4, 7]: 897 ± 292 ng/g
- Kp uu at 1 h ([4]; oral gavage 10 mg/kg): 0.35 ± 0.05
- Kp at 1 h ([4]; oral gavage 10 mg/kg): 1.47 ± 0.22
- concentration at 1 h [4, 8]: 636 ± 265 ng/mL
- fuplasma (% free) [5]: 25.0 % free
SMILES: Cc1c2c(nn1[C@@H]1CCO[C@H](C)C1)OCCCn1nc(Cl)c3cnc(nc31)N2 (single isomer, unassigned) [Example 18]

- IC50 [1]: 2.9 nM
- IC50 [2]: 7.9 nM
- CLint scaled at 0.1 μM [3]: 6.33 mL/min/kg
- concentration at 0.5 h [4, 7]: 550 ± 283 ng/g
- Kp uu at 0.5 h ([4]; oral gavage 10 mg/kg): 0.32 ± 0.05
- Kp at 0.5 h ([4]; oral gavage 10 mg/kg): 1.88 ± 0.31
- concentration at 0.5 h [4, 8]: 295 ± 145 ng/mL
- fuplasma (% free) [5]: 21.7 % free
SMILES: Cc1c2c(nn1[C@H]1CCOC(C)(C)C1)OCCCn1nc(Cl)c3cnc(nc31)N2 (single isomer, unassigned) [Example 42, (+)-(R) or (S)-8-Chloro-2-(2,2-dimethyltetrahydro-2H-pyran-4-yl)-3-methyl-2,4,12,13-tetrahydro-11H-5,7-(azenometheno)dipyrazolo[3,4-b:5′,1′-g][1]oxa[4,6,8]triazacycloundecine]

- IC50 [1]: 2.4 nM
- IC50 [2]: 5.6 nM
- CLint scaled at 0.1 μM [3]: < 4.17 mL/min/kg
- concentration at 1 h [4, 7]: 215 ± 70 ng/g
- Kp uu at 1 h ([4]; oral gavage 10 mg/kg): 0.5 ± 0.04
- Kp at 1 h ([4]; oral gavage 10 mg/kg): 1.65 ± 0.13
- concentration at 1 h [4, 8]: 133 ± 54 ng/mL
- fuplasma (% free) [5]: 24.9 % free
SMILES: Cc1c2c(nn1[C@@H]1CCOC[C@H]1F)OCCCn1nc(Cl)c3cnc(nc31)N2 (single isomer, unassigned) [Example 31, (−)-8-Chloro-2-((3S,4R) or (3R,4S)-3-fluorotetrahydro-2H-pyran-4-yl)-3-methyl-2,4,12,13-tetrahydro-11H-5,7-(azenometheno)dipyrazolo[3,4-b:5′,1′-g][1]oxa[4,6,8]triazacycloundecine]
